Legend:
EphA4 [1] = target: T1, EphA4 (Rattus norvegicus, UniProt D3ZZK3); experiment: Pull down experiment with pep-ephrinA4 (FIG. 4B), EphA4; assay type: binding; conditions: vs pep-control and agarose beads alone
[2] = target: elongation factor 2 protein (eEF2) (Rattus norvegicus, UniProt P05197); experiment: Pull down experiment with pep-ephrinA4, eEF2 control protein; assay type: binding
rats = conditions: subcutaneous, single dose 20 μl of 10 μg/μl, 1 hour after fear conditioning, relative to saline
Protocol: A fear conditioning in vivo model was performed as in example 3A, however, no cannula was introduced into the rats. […] A fear memory test was performed 24 hours after the injection.

EphB2 receptor = conditions: control protein
EphA4 [3] = target: T1, EphA4; experiment: ephrinA4-induced EphA4 tyrosine phosphorylation in brain slices containing the amygdala (immunoprecipitation, Western blot); assay type: cell-based; parameters: brain slices that contain the amygdala were divide to 3 groups; from tissue; host or cells: brain slices containing the amygdala; conditions: brain slices in Ringer's solution stimulated with ephrinA4-Fc for 20 minutes, compared to Ringer's solution control
Protocol: Further, brain slices that contain the amygdala were divide to 3 groups: 1) placed in Ringer's solution, 2) placed in Ringer's solution and stimulated with ephrinA4-Fc for 20 minutes or 3) placed in Ringer's solution with pep-ephrinA4 for 20 minutes followed by stimulation with ephrinA4-Fc for 20 minutes (n=3 each). Protein extracts from the slices were immunoprecipitated with anti-EphA4 antibody and subjected to Western blot with anti-EphA4 or anti-phosphotyrosine antibodies.

T1 sequence (D3ZZK3 20-986): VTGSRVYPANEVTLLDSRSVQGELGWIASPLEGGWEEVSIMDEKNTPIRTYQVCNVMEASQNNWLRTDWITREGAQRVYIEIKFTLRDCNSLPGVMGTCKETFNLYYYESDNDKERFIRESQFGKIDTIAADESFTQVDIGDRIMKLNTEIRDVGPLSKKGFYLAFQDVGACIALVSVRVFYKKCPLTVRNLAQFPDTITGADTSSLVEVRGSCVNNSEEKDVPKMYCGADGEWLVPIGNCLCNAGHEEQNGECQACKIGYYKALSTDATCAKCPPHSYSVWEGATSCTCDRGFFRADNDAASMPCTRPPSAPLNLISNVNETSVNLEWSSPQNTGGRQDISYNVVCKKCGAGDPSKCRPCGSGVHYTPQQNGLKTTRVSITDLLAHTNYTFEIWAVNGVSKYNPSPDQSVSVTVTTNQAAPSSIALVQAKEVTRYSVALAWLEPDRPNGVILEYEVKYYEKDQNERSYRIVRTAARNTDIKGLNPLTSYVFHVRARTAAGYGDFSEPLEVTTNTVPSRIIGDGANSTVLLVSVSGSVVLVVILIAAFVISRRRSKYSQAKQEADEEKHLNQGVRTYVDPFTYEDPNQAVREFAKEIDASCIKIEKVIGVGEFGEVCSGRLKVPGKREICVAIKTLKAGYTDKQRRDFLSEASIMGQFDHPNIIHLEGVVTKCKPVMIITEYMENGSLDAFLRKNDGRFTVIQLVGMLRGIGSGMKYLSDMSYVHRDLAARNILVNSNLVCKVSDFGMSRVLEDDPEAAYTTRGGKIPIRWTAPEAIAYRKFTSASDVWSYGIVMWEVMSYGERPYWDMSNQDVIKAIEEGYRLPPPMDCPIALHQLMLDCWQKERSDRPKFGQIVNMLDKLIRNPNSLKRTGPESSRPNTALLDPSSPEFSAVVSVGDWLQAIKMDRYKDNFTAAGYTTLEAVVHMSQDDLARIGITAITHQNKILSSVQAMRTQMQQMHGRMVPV
Protocol for male Sprague Dawley rats: Subsequently, the neutral stimulus is administered to the groups of animals, and the animals' responses are analyzed. A test group of animals is administered a test agent which may inhibit the long term association in the memory of the animals between the neutral stimulus and the aversive event. If at a point in time about 24 hours after training the animals in the test group respond to the stimulus to a lesser degree than the animals in the control group without having other significant side effects, the test agent is determined to inhibit formation of long term memories. […] Short term memory formation was also tested in the current model by testing responses to stimulus 60 minutes after training.
In the current model, neutral stimulus provided to the animals was a tone and the aversive event was a mild footshock provided to the animals.
Long-term memory formation is believed to involve modifications in neural transmission and/or synaptic connections in neural networks in the area of the brain known as the lateral amygdala (LA.) In the current model, Peptide 1 was used a test agent and was administered directly to the LA.
In the model, male Sprague Dawley rats (each weighing about 250-300 grams), were used in the study (animals were obtained from Harlan Laboratories). In order to administer test agents to the LA of the rats, surgery was performed in which cannulas were inserted. To perform the surgery, rats were anesthetized with Xylazine 2% (15 milligrams per kilogram [mg/kg]) and Ketamine (120 mg/kg). Calmagine (Vetoquinol) (0.01 milliliters) was injected for analgesia before surgery. Guide stainless-steel cannulas (23 gauge) were implanted bilaterally 1.5 millimeters (mm) above the LA. The animals recovered for 5-7 days before behavior training.
Following surgery, rats were housed separately at 22±2° C. in a 12 hour light/dark cycle, with free access to food and water.
Rats were habituated to the training chamber and to the injection machine for 2 days for 30 min each day. On the next day the animals were subjected to the fear conditioning protocol. […]

EphA4 phosphorylation after stimulation (EphA4 [3])	Substance	interaction with EphA4 (pull down) (EphA4 [1])	interaction with elongation factor 2 protein (eEF2) (pull down) [2]	freezing in fear memory test 24 hours after the injection (rats)	freezing 24 hours after training (long term fear memory) (male Sprague Dawley rats; 0.5 μl of 10 μg/μl per amygdala into LA 30 minutes before training, vs saline, peptide 2 and misplaced peptide 1)	rate of fear reduction over the trials (male Sprague Dawley rats; LA microinjection, compared to controls)	freezing 1 hour after training (formation of short term memory) (male Sprague Dawley rats; LA microinjection, no main effect for groups (p>0.4))	interaction with EphB2 receptor (pull down) (EphB2 receptor)
	Ac-RRWSGYEACTAEG-Lys(Biotin)-NH2-0H [peptide 2, reference compound]	not						
	Ac-RRQRYTPFPLGFE-Lys(Biotin)-NH2-0H [peptide 1]	interacts	did not interact	significantly reducing freezing	froze significantly less	did not alter	does not inhibit	did not interact
significant increase	ephrinA4: ephrinA4-Fc used to stimulate brain slices for 20 minutes (RRQRYTPFPLGFEK)							
